Results reported in patent publication US20250098679A1, “HERBICIDAL PYRIDONE DERIVATIVES” (SYNGENTA CROP PROTECTION AG, priority 2021, published 2025).

Key:
Assay type in all cases: in vivo
[1] = system: Ipomoea hederacea (IPOHE); test: Pre-emergence Test, Ipomoea hederacea (IPOHE); conditions: evaluated after 13 days
[2] = system: Amaranthus retoflexus (AMARE); test: Pre-emergence Test, Amaranthus retoflexus (AMARE); conditions: evaluated after 13 days
[3] = system: Echinochloa crus-galli (ECHCG); test: Pre-emergence Test, Echinochloa crus-galli (ECHCG); conditions: evaluated after 13 days
[4] = system: Amaranthus retoflexus (AMARE); test: Post-emergence Test, Amaranthus retoflexus (AMARE); parameters: key to percentage damage caused to the plant, AMARE (five-point scale): 5=81-100%, 4=61-80%, 3=41-60%, 2=21-40%, 1=0-20% damage; conditions: evaluated after 13 days
Summary of the method: (§1)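 Pots sprayed with compound in acetone/water (50:50) with 0.5% Tween 20, at 1000 g/ha unless noted, glasshouse 24/16 °C, 14 h light, 65% humidity. Damage scored 13 days after spraying on a five-point scale (5=81-100% to 1=0-20%).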

Zea mays (ZEAMX) [5] = test: Pre-emergence Test, Zea mays (ZEAMX); conditions: evaluated after 13 days
[6] = system: Amaranthus palmeri (AMAPA); test: Pre-emergence Test, Amaranthus palmeri (AMAPA); conditions: evaluated after 13 days
Setaria faberi (SETFA) = test: Post-emergence Test, Setaria faberi (SETFA); parameters: key to percentage damage caused to the plant, SETFA (five-point scale): 5=81-100%, 4=61-80%, 3=41-60%, 2=21-40%, 1=0-20% damage; conditions: 1000 g/ha, evaluated after 13 days
Summary of the method: as §1

[7] = system: Ipomoea hederacea (IPOHE); test: Post-emergence Test, Ipomoea hederacea (IPOHE); parameters: key to percentage damage caused to the plant, IPOHE (five-point scale): 5=81-100%, 4=61-80%, 3=41-60%, 2=21-40%, 1=0-20% damage; conditions: evaluated after 13 days
Summary of the method: as §1

[8] = system: Amaranthus palmeri (AMAPA); test: Post-emergence Test, Amaranthus palmeri (AMAPA); parameters: key: 5=81-100%, 4=61-80%, 3=41-60%, 2=21-40%, 1=0-20% damage; conditions: evaluated after 13 days
Summary of the method: as §1

[9] = system: Echinochloa crus-galli (ECHCG); test: Post-emergence Test, Echinochloa crus-galli (ECHCG); parameters: key to percentage damage caused to the plant, ECHCG (five-point scale): 5=81-100%, 4=61-80%, 3=41-60%, 2=21-40%, 1=0-20% damage; conditions: 250 g/Ha, evaluated after 13 days
Summary of the method: as §1

Zea mays (ZEAMX) [10] = test: Post-emergence Test, Zea mays (ZEAMX); parameters: key to percentage damage caused to the plant, ZEAMX (five-point scale): 5=81-100%, 4=61-80%, 3=41-60%, 2=21-40%, 1=0-20% damage; conditions: evaluated after 13 days
Summary of the method: as §1

CCn1c(Cn2ccc(COC)n2)cc(=O)c(C(=O)O)c1-c1ccc(Cl)c(Cl)c1 [Compound 162, 2-(3,4-dichlorophenyl)-1-ethyl-6-[[3-(methoxymethyl)pyrazol-1-yl]methyl]-4-oxo-pyridine-3-carboxylic acid]
0: Pre-emergence Test AMAPA, percentage damage caused to the plant (five-point scale) ([6]; 250 g/Ha (*))
3 (3=41-60%): Pre-emergence Test AMARE, percentage damage caused to the plant (five-point scale) ([2]; 1000 g/ha) | Pre-emergence Test ECHCG, percentage damage caused to the plant (five-point scale) ([3]; 250 g/Ha (*)) | percentage damage caused to the plant, ECHCG (five-point scale) [9] | percentage damage caused to the plant, ZEAMX (five-point scale) (Zea mays (ZEAMX) [10]; 1000 g/ha)
2 (2=21-40%): percentage damage caused to the plant, AMARE (five-point scale) ([4]; 1000 g/ha) | percentage damage caused to the plant, IPOHE (five-point scale) ([7]; 250 g/Ha) | percentage damage caused to the plant, AMAPA (five-point scale) ([8]; 1000 g/ha)
4 (4=61-80%): Pre-emergence Test IPOHE, percentage damage caused to the plant (five-point scale) ([1]; 1000 g/ha) | Pre-emergence Test ZEAMX, percentage damage caused to the plant (five-point scale) (Zea mays (ZEAMX) [5]; 1000 g/ha) | percentage damage caused to the plant, IPOHE (five-point scale) ([7]; 1000 g/ha)
5 (5=81-100%): Pre-emergence Test ECHCG, percentage damage caused to the plant (five-point scale) ([3]; 1000 g/ha) | percentage damage caused to the plant, SETFA (five-point scale) (Setaria faberi (SETFA))
1 (1=0-20%): Pre-emergence Test IPOHE, percentage damage caused to the plant (five-point scale) ([1]; 250 g/Ha (*)) | Pre-emergence Test AMARE, percentage damage caused to the plant (five-point scale) ([2]; 250 g/Ha (*)) | percentage damage caused to the plant, AMARE (five-point scale) ([4]; 250 g/Ha) | Pre-emergence Test ZEAMX, percentage damage caused to the plant (five-point scale) (Zea mays (ZEAMX) [5]; 250 g/Ha (*)) | Pre-emergence Test AMAPA, percentage damage caused to the plant (five-point scale) ([6]; 1000 g/ha) | percentage damage caused to the plant, AMAPA (five-point scale) ([8]; 250 g/Ha) | percentage damage caused to the plant, ZEAMX (five-point scale) (Zea mays (ZEAMX) [10]; 250 g/Ha)

CCOc1ccn(Cc2cc(=O)c(C(=O)O)c(-c3ccc(Cl)c(Cl)c3)n2CC)n1 [Compound 164, 2-(3,4-dichlorophenyl)-6-[(3-ethoxypyrazol-1-yl)methyl]-1-ethyl-4-oxo-pyridine-3-carboxylic acid]
4 (4=61-80%): Pre-emergence Test IPOHE, percentage damage caused to the plant (five-point scale) ([1]; 250 g/Ha (*)) | Pre-emergence Test IPOHE, percentage damage caused to the plant (five-point scale) ([1]; 1000 g/ha) | Pre-emergence Test ECHCG, percentage damage caused to the plant (five-point scale) ([3]; 250 g/Ha (*)) | percentage damage caused to the plant, IPOHE (five-point scale) ([7]; 1000 g/ha) | percentage damage caused to the plant, ECHCG (five-point scale) [9] | percentage damage caused to the plant, ZEAMX (five-point scale) (Zea mays (ZEAMX) [10]; 250 g/Ha) | percentage damage caused to the plant, ZEAMX (five-point scale) (Zea mays (ZEAMX) [10]; 1000 g/ha)
0: Pre-emergence Test ZEAMX, percentage damage caused to the plant (five-point scale) (Zea mays (ZEAMX) [5]; 1000 g/ha) | Pre-emergence Test AMAPA, percentage damage caused to the plant (five-point scale) ([6]; 250 g/Ha (*))
3 (3=41-60%): percentage damage caused to the plant, AMARE (five-point scale) ([4]; 1000 g/ha) | percentage damage caused to the plant, IPOHE (five-point scale) ([7]; 250 g/Ha) | percentage damage caused to the plant, AMAPA (five-point scale) ([8]; 1000 g/ha)
5 (5=81-100%): Pre-emergence Test ECHCG, percentage damage caused to the plant (five-point scale) ([3]; 1000 g/ha) | percentage damage caused to the plant, SETFA (five-point scale) (Setaria faberi (SETFA))
1 (1=0-20%): Pre-emergence Test AMARE, percentage damage caused to the plant (five-point scale) ([2]; 250 g/Ha (*)) | Pre-emergence Test AMARE, percentage damage caused to the plant (five-point scale) ([2]; 1000 g/ha) | percentage damage caused to the plant, AMARE (five-point scale) ([4]; 250 g/Ha) | Pre-emergence Test ZEAMX, percentage damage caused to the plant (five-point scale) (Zea mays (ZEAMX) [5]; 250 g/Ha (*)) | Pre-emergence Test AMAPA, percentage damage caused to the plant (five-point scale) ([6]; 1000 g/ha) | percentage damage caused to the plant, AMAPA (five-point scale) ([8]; 250 g/Ha)

CCn1c(Cn2ccc(OCC(F)F)n2)cc(=O)c(C(=O)O)c1-c1ccc(Cl)c(Cl)c1 [Compound 165, 2-(3,4-dichlorophenyl)-6-[[3-(2,2-difluoroethoxy)pyrazol-1-yl]methyl]-1-ethyl-4-oxo-pyridine-3-carboxylic acid]
5 (5=81-100%): Pre-emergence Test ECHCG, percentage damage caused to the plant (five-point scale) ([3]; 1000 g/ha)
1 (1=0-20%): Pre-emergence Test AMARE, percentage damage caused to the plant (five-point scale) ([2]; 1000 g/ha) | percentage damage caused to the plant, AMARE (five-point scale) ([4]; 250 g/Ha) | Pre-emergence Test ZEAMX, percentage damage caused to the plant (five-point scale) (Zea mays (ZEAMX) [5]; 250 g/Ha (*)) | percentage damage caused to the plant, AMAPA (five-point scale) ([8]; 250 g/Ha)
4 (4=61-80%): Pre-emergence Test IPOHE, percentage damage caused to the plant (five-point scale) ([1]; 1000 g/ha) | Pre-emergence Test ECHCG, percentage damage caused to the plant (five-point scale) ([3]; 250 g/Ha (*)) | Pre-emergence Test ZEAMX, percentage damage caused to the plant (five-point scale) (Zea mays (ZEAMX) [5]; 1000 g/ha) | percentage damage caused to the plant, SETFA (five-point scale) (Setaria faberi (SETFA)) | percentage damage caused to the plant, IPOHE (five-point scale) ([7]; 250 g/Ha) | percentage damage caused to the plant, IPOHE (five-point scale) ([7]; 1000 g/ha)
2 (2=21-40%): Pre-emergence Test AMAPA, percentage damage caused to the plant (five-point scale) ([6]; 1000 g/ha) | percentage damage caused to the plant, AMAPA (five-point scale) ([8]; 1000 g/ha) | percentage damage caused to the plant, ZEAMX (five-point scale) (Zea mays (ZEAMX) [10]; 250 g/Ha)
3 (3=41-60%): Pre-emergence Test IPOHE, percentage damage caused to the plant (five-point scale) ([1]; 250 g/Ha (*)) | percentage damage caused to the plant, AMARE (five-point scale) ([4]; 1000 g/ha) | percentage damage caused to the plant, ECHCG (five-point scale) [9] | percentage damage caused to the plant, ZEAMX (five-point scale) (Zea mays (ZEAMX) [10]; 1000 g/ha)
0: Pre-emergence Test AMARE, percentage damage caused to the plant (five-point scale) ([2]; 250 g/Ha (*)) | Pre-emergence Test AMAPA, percentage damage caused to the plant (five-point scale) ([6]; 250 g/Ha (*))

CCn1c(Cn2ccc(OC(C)C)n2)cc(=O)c(C(=O)O)c1-c1ccc(Cl)c(Cl)c1 [Compound 166, 2-(3,4-dichlorophenyl)-1-ethyl-6-[(3-isopropoxypyrazol-1-yl)methyl]-4-oxo-pyridine-3-carboxylic acid]
0: Pre-emergence Test AMARE, percentage damage caused to the plant (five-point scale) ([2]; 250 g/Ha (*)) | percentage damage caused to the plant, AMARE (five-point scale) ([4]; 250 g/Ha) | Pre-emergence Test AMAPA, percentage damage caused to the plant (five-point scale) ([6]; 250 g/Ha (*))
5 (5=81-100%): Pre-emergence Test ECHCG, percentage damage caused to the plant (five-point scale) ([3]; 250 g/Ha (*)) | Pre-emergence Test ECHCG, percentage damage caused to the plant (five-point scale) ([3]; 1000 g/ha) | Pre-emergence Test ZEAMX, percentage damage caused to the plant (five-point scale) (Zea mays (ZEAMX) [5]; 1000 g/ha) | percentage damage caused to the plant, SETFA (five-point scale) (Setaria faberi (SETFA))
4 (4=61-80%): Pre-emergence Test IPOHE, percentage damage caused to the plant (five-point scale) ([1]; 1000 g/ha) | percentage damage caused to the plant, IPOHE (five-point scale) ([7]; 1000 g/ha) | percentage damage caused to the plant, ECHCG (five-point scale) [9] | percentage damage caused to the plant, ZEAMX (five-point scale) (Zea mays (ZEAMX) [10]; 1000 g/ha)
2 (2=21-40%): Pre-emergence Test IPOHE, percentage damage caused to the plant (five-point scale) ([1]; 250 g/Ha (*)) | percentage damage caused to the plant, IPOHE (five-point scale) ([7]; 250 g/Ha) | percentage damage caused to the plant, ZEAMX (five-point scale) (Zea mays (ZEAMX) [10]; 250 g/Ha)
1 (1=0-20%): Pre-emergence Test AMARE, percentage damage caused to the plant (five-point scale) ([2]; 1000 g/ha) | percentage damage caused to the plant, AMARE (five-point scale) ([4]; 1000 g/ha) | Pre-emergence Test ZEAMX, percentage damage caused to the plant (five-point scale) (Zea mays (ZEAMX) [5]; 250 g/Ha (*)) | Pre-emergence Test AMAPA, percentage damage caused to the plant (five-point scale) ([6]; 1000 g/ha) | percentage damage caused to the plant, AMAPA (five-point scale) ([8]; 250 g/Ha) | percentage damage caused to the plant, AMAPA (five-point scale) ([8]; 1000 g/ha)
